Data taken from the supplement of paper PMC10307832.

Key:
Experiment in all cases: relative viability (nuclei count vs DMSO), 5 days (fraction); higher = more cells survive
[1] = compound: CCn1c(-c2nonc2N)nc2cnc(Oc3cccc(NC(=O)c4ccc(OCCN5CCOCC5)cc4)c3)cc21 + Cc1cc(Nc2cc(N3CCN(C)CC3)nc(Sc3ccc(NC(=O)C4CC4)cc3)n2)n[nH]1 [Tozasertib] (partner 0.1 µM)
Outline: (§1)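 Values are medians from duplicate plates. Each reflects relative viability, defined as the nuclei count of treated wells over that of vehicle wells. Lung cancer cell lines in 1536-well plates were pin-tool dosed one day after seeding with one drug alone or with a fixed anchor-drug dose plus five library-drug doses (not always all listed) in √10 steps, then fixed, stained and imaged at 4× after 5 days.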

[2] = compound: CCC1=CN=CN=C1N2CCN(CC2)CC3=NC4=C(N3)C=C(C=C4)C(F)(F)F + COc1cccc2cc(-c3nc([C@H]4CC[C@H](C(=O)O)CC4)n4ncnc(N)c34)[nH]c12 [OSI-027] (partner 0.5 µM)
Outline: as §1

Mirin + Crizotinib = compound: N=C1NC(=O)/C(=C/c2ccc(O)cc2)S1 [Mirin] + C[C@@H](Oc1cc(-c2cnn(C3CCNCC3)c2)cnc1N)c1c(Cl)ccc(F)c1Cl [Crizotinib] (partner 1 µM)
Outline: as §1

Mirin + Vorinostat = compound: N=C1NC(=O)/C(=C/c2ccc(O)cc2)S1 [Mirin] + O=C(CCCCCCC(=O)Nc1ccccc1)NO [Vorinostat] (partner 1 µM)
Outline: as §1

Cell Line	relative viability ([1]; first compound 0.04 µM)	relative viability ([1]; first compound 0.1265 µM)	relative viability ([1]; first compound 0.4 µM)	relative viability ([1]; first compound 1.265 µM)	relative viability ([1]; first compound 4 µM)	relative viability ([2]; first compound 0.04 µM)	relative viability ([2]; first compound 0.1265 µM)	relative viability ([2]; first compound 0.4 µM)	relative viability ([2]; first compound 1.265 µM)	relative viability ([2]; first compound 4 µM)	relative viability (Mirin + Crizotinib; first compound 0.25 µM)	relative viability (Mirin + Crizotinib; first compound 0.7906 µM)	relative viability (Mirin + Crizotinib; first compound 2.5 µM)	relative viability (Mirin + Crizotinib; first compound 7.906 µM)	relative viability (Mirin + Crizotinib; first compound 25 µM)	relative viability (Mirin + Vorinostat; first compound 0.25 µM)	relative viability (Mirin + Vorinostat; first compound 0.7906 µM)	relative viability (Mirin + Vorinostat; first compound 2.5 µM)	relative viability (Mirin + Vorinostat; first compound 7.906 µM)	relative viability (Mirin + Vorinostat; first compound 25 µM)
NCI-H460	0.563	0.601	0.311	0.036	0.0635	0.752	0.59	0.645	0.538	0.595	0.887	1.15	0.935	0.875	0.915	0.709	0.824	0.666	0.687	0.685
NCI-H650	1.01	0.639	0.41	0.283	0.271	0.444	0.427	0.555	0.543	0.511	0.726	–	0.656	–	0.673	0.484	0.338	0.414	0.389	0.448
NCI-H1915	0.499	0.457	0.417	0.396	0.406	0.612	0.629	0.605	0.49	0.587	0.863	–	0.87	0.809	1.03	0.527	0.498	0.558	0.341	0.52
NCI-H1734	0.223	0.264	0.234	0.179	0.212	0.601	0.557	0.58	0.513	0.714	0.626	0.669	0.607	0.663	0.524	0.797	0.688	0.783	0.693	0.735
NCI-H1993	0.634	0.705	0.502	0.501	0.455	0.49	0.55	0.614	0.494	0.604	0.757	0.82	0.845	0.926	0.788	1.07	0.627	0.89	0.947	0.737
LK-2	0.198	0.159	0.173	0.179	0.171	0.17	0.22	0.182	0.165	0.23	0.241	–	0.238	0.24	0.199	0.204	0.234	0.294	0.207	0.271
HCC-78	0.589	–	–	0.532	0.519	0.347	0.37	0.359	0.381	0.372	0.362	0.381	0.371	0.386	0.41	0.41	0.473	0.472	0.399	0.471
NCI-H3122	0.501	0.395	0.385	0.332	0.325	1.02	0.974	0.937	0.938	1.17	0.247	0.256	0.266	0.229	0.247	1.06	1.01	1.08	0.997	1.05
